Paper PMC7307922 (Journal of Medicinal Chemistry, 2020)
Values after ≈ are worked out from the molar mass of the structure shown.

Key:
[1] = Kinetic aqueous solubility in PBS pH 7.4; type: physicochemical; conditions: for solubility: phosphate buffered saline, pH 7.4, read-out: Aq. solub.
Description: Solubility and log D7.4 measurements were performed in accordance to the previously published procedures.[35]

human FFA1 = biological target: T1, human FFA1 (Homo sapiens, UniProt O14842); assay: FFA1 counterscreen, arrestin BRET assay; type: cell-based; conditions: 10 μM
T1 construct: expressed in transfected cells; host or cells: HEK293T, transient co-transfection
T1 sequence (O14842 whole entry): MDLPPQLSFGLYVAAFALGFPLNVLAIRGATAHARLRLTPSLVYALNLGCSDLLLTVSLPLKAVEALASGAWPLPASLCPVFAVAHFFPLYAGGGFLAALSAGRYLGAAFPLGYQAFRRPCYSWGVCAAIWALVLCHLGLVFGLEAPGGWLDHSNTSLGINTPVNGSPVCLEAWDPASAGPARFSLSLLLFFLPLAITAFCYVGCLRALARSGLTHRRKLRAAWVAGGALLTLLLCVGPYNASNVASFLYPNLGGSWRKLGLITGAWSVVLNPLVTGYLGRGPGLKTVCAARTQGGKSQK
Description: (§1) Counter screening against FFA1, FFA2 , FF A4 and GPR84
(§2) Counter screening against FFA1 and FFA4 was carried out using a modified version of a previously described bioluminescence resonance energy transfer (BRET) designed to assess recruitment of b-ar r estin-2 to each receptor.2 Briefly, HEK293T cells were co-transfected with plasmids en coding either human FFA1 or human FFA4 tagged at their C -termini with eYFP and with a plasmid encoding b-ar r estin-2 tagged at its N-terminal with Nanoluciferase. 24 h post transfection cells were seeded into black with clear bottom 96-well plates that had been coated with poly-D-lysine. Cells were then cultured a further 24 h prior to experiments. Cells were then washed twice with Hank’s Balanced salt solution supplemented with 10 mM HEPES (HBSSH) then incubated at 37 °C in HBSSH for 30 min prior to running the assay. The Nluc substrate, coelenterazine h was then added to a f inal concentration of 5 µM and cells were incubated at 37 °C for 10 min prior to adding test agonists. Following a further 5 min incubation, luminescent emission at 475 nm and 535 nm was measured using a Pherastar FS reader (BMG Labtech, Aylesbury, UK) pla te reader set for bottom plate optics. The BRET ratio was then calculated as 535/475 emissions and all BRET ratio values were normalized against the maxima l BRET ratio obtained using reference agonists for the respective receptors (TUG -891 for FFA4, TUG-770 for FFA1). For antagonism studies, the same protocol was used, however the antagonist was added 15 min prior to the addition of an EC 80 concentration of the reference agonist for each receptor. […]

[2] = biological target: T2, Cav1.2 (L-type) Human Calcium Ion Channel (Homo sapiens, UniProt Q13936); assay: Cav1.2 (L-type) calcium ion channel binding assay, Panlabs; conditions: 10 μM
T2 construct: Panlabs
T2 sequence (Q13936 whole entry): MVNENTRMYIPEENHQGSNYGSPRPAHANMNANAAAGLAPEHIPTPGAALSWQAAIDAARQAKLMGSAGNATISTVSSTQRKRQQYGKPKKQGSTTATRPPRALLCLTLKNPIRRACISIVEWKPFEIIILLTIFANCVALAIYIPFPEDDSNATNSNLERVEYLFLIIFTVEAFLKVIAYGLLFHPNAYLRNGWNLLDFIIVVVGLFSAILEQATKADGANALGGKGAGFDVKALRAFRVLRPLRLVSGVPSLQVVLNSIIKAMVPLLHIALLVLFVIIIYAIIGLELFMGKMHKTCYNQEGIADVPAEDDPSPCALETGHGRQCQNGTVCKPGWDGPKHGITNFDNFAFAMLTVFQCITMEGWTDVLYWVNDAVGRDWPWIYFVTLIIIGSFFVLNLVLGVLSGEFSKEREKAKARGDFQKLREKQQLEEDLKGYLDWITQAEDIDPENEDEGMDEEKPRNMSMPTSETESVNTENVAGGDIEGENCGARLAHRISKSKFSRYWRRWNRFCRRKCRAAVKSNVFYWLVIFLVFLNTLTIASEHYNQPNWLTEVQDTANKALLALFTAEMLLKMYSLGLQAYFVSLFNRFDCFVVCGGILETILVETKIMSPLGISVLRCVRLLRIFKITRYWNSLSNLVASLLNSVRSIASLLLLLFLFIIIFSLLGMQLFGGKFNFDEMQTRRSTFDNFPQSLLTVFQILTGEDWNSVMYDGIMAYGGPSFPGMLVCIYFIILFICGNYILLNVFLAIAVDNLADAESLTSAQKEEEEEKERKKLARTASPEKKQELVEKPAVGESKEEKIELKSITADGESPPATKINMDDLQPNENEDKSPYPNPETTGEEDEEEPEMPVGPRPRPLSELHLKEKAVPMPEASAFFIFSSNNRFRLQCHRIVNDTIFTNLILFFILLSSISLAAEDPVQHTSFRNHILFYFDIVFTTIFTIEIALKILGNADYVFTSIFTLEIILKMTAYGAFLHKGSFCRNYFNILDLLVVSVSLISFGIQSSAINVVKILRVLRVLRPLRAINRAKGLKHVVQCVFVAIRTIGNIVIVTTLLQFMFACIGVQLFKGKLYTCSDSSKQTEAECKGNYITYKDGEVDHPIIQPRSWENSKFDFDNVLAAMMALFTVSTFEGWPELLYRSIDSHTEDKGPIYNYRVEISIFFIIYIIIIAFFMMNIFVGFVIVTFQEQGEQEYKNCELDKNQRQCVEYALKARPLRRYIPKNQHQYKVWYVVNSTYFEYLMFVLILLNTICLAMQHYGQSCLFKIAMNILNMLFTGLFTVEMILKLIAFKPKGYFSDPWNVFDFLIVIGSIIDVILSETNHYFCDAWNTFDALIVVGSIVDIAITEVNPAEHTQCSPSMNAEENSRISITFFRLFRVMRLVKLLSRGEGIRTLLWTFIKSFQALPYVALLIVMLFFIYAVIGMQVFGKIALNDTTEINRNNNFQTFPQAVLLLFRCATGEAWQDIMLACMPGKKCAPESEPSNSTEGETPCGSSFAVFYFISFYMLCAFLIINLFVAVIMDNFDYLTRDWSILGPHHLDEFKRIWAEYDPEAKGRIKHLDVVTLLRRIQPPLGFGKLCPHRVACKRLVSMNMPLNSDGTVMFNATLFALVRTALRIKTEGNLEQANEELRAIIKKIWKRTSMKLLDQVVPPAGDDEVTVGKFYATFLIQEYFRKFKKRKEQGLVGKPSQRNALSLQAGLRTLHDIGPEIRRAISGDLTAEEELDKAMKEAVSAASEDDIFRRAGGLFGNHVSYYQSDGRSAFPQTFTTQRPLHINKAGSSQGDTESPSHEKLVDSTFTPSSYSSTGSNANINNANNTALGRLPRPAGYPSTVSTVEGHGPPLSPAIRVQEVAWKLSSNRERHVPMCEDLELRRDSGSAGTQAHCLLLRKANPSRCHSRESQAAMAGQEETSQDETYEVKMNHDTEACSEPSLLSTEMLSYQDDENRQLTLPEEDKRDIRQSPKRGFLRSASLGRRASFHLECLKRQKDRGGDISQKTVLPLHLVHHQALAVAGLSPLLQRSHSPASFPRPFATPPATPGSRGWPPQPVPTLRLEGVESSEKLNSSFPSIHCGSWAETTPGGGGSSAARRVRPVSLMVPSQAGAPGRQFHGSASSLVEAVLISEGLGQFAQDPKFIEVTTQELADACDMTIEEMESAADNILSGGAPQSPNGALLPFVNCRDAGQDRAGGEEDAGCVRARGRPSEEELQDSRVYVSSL
T2 sequence (Q08289 whole entry partner): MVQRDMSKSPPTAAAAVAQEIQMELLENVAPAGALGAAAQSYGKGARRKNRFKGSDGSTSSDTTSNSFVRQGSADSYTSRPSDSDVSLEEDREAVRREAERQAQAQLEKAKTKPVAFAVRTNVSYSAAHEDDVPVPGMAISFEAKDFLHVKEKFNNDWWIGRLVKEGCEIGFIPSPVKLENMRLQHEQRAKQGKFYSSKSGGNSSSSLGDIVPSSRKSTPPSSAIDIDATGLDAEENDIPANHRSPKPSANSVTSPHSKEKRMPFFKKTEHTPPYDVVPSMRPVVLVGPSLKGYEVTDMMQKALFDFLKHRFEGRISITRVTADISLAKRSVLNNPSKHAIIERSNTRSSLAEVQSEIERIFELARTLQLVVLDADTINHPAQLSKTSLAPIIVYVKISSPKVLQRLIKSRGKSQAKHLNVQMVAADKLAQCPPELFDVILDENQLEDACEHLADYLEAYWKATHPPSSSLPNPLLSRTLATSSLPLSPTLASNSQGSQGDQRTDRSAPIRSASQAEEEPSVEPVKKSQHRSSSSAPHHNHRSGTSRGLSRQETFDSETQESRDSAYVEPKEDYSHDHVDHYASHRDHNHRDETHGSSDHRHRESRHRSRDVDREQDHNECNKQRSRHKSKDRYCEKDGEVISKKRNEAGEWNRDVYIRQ
T2 sequence (P54289 25-946 partner limits assumed): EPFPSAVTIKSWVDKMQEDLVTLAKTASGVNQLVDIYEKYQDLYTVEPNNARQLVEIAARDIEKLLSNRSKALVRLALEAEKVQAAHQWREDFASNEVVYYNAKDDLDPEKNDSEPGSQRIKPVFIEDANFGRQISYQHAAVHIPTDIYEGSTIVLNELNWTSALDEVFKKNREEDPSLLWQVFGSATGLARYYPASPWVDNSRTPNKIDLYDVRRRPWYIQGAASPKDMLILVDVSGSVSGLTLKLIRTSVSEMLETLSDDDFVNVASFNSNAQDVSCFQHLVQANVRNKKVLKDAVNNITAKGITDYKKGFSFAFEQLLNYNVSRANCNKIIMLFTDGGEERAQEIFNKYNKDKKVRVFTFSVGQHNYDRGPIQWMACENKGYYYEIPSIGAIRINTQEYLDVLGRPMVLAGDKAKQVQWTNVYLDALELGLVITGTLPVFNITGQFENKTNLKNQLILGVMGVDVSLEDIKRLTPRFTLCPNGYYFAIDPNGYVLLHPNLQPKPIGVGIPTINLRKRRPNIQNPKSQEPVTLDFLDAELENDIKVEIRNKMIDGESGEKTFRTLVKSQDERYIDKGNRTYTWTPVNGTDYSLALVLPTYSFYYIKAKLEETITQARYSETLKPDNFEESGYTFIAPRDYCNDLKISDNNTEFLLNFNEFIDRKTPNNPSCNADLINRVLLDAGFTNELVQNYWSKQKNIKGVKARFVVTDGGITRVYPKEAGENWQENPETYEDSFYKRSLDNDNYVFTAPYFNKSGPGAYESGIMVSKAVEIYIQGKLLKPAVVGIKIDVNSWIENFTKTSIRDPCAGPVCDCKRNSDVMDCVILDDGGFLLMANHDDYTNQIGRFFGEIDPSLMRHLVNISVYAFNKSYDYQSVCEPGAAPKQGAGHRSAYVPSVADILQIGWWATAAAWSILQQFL
T2 sequence (P54289 947-1103 partner limits assumed): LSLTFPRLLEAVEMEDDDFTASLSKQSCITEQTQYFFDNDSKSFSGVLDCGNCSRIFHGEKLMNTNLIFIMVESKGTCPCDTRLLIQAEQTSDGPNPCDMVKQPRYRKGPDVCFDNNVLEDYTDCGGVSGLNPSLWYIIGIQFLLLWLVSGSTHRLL
Description: Counterscreen data on 1, 16, 57 and 63
Cav1.2 (L-type) Human Calcium Ion Channel Binding -20% 13% 12% 1%
(Antagonist Radioligand) Assay, Panlabs, 10 µM

hFFA3 = biological target: T3, hFFA3 (Homo sapiens, UniProt O14843); assay: cell-based; conditions: for Emax: HEK293, read-out: cAMP Emax; for cAMP pEC50 / EC50: hFFA3; for cAMP pEC50: compound alone, mean of ≥3 independent experiments ± standard error; for EC50: read-out: EC50 (cAMP assay)
T3 sequence (O14843 1-346): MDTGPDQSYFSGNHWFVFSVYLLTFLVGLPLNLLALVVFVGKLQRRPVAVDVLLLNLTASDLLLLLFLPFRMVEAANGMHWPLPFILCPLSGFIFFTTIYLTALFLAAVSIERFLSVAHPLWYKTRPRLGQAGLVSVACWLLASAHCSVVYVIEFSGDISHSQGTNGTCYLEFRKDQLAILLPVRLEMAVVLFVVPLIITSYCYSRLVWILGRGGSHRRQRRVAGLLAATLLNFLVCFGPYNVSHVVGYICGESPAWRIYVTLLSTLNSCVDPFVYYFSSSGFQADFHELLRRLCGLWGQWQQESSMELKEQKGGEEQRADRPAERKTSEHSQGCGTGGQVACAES
Method in brief: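 HEK293 Flp-In T-REx cells stably carrying FFA3-eYFP, expression induced overnight with doxycycline, 3000 cells/well; compounds co-incubated 1 h to inhibit 0.3 μM forskolin-induced cAMP, read with HTRF cAMP kit.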

human FFA4 = biological target: T4, human FFA4 (Homo sapiens, UniProt Q5NUL3); assay: FFA4 counterscreen, arrestin BRET assay; type: cell-based; conditions: 10 μM
T4 construct: expressed in transfected cells; host or cells: HEK293T, transient co-transfection
T4 sequence (Q5NUL3 1-361): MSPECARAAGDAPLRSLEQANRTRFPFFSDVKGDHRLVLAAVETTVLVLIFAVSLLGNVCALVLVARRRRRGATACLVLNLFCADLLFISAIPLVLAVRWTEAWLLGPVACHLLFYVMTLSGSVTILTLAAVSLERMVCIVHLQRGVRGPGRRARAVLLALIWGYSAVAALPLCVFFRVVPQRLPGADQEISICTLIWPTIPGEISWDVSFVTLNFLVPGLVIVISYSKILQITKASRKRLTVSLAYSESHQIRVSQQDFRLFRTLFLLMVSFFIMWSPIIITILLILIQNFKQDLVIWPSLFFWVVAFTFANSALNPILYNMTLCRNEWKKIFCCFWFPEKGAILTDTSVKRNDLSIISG
Description: as §1, §2

human GPR84 = human GPR84 (Homo sapiens, UniProt Q9NQS5); assay: GPR84 counterscreen, cAMP assay; type: cell-based; conditions: 10 μM
human GPR84, sequence (Q9NQS5 whole entry): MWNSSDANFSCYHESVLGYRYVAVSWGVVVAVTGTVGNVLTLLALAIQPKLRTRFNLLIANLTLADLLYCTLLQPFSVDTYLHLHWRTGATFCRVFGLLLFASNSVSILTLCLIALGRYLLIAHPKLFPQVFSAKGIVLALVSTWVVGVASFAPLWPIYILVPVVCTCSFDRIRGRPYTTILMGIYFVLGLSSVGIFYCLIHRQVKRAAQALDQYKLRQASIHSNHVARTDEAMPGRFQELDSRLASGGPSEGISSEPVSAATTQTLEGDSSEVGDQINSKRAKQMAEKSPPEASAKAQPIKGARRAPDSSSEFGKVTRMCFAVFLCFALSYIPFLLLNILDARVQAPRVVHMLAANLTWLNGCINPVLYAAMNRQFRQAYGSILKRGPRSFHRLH
Description: Counter screening against FFA1, FFA2 , FF A4 and GPR84 […]
(100 ng/mL) overnight to induce receptor expressi on. […]
Counter screening for GPR84 was carried out using a cAMP assay. Flp -In T-Re x 293 cells generated to stably express human GPR84 tagged at is C-terminal with Gia were first treated with doxycycline […]
HT R-FRET cAMP assay (CisBio) according to the manufacturer’s protocol and measured using an Envision plate reader (PerkinElmer). For these experiments, 5000 cells were used per well in a low volume 384-well plate and compounds were tested against their ability to inhibit the cAMP response to 1 µM forskolin for 45 min. TUG-1985 was used as reference agonist. […]

Structure (SMILES)	solubility [1]	activity at FFA1 (human FFA1)	Cav1.2 (L-type) binding (antagonist radioligand) [2]	activity at L-type calcium ion channels [2]	Emax (hFFA3)	PAM pEC50 (hFFA3; cAMP assay in the presence of 1 μM propionate)	cAMP pEC50 (hFFA3)	activity at FFA4 (human FFA4)	GPR84, agonist, cAMP assay (human GPR84)	activity at GPR84 (human GPR84)	allosteric effect on propionate response (hFFA3; cAMP assay together with propionate (56: 30 μM compound; 62, 63: 1 μM propionate))	EC50 (hFFA3)	increase of solubility relative to 16 ([1]; kinetic solubility)
CC1=C(C(=O)Nc2ccccc2C)C(c2ccco2)C2=C(CCCC2=O)N1 (centres unmarked) [Compound 1, 4-(Furan-2-yl)-2-methyl-5-oxo-N-(o-tolyl)-1,4,5,6,7,8-hexahydroquinoline-3-carboxamide, reference compound]	190 µM (≈ 68.9 µg/mL)	No significant activity	-20%	No significant activity	105%	6.27 ± 0.15	6.28 ± 0.06	No significant activity	1±7%	No significant activity			
CC1=C(C(=O)Nc2cc(Cl)ccc2Cl)C(C2CCCC2)C2=C(CCCC2=O)N1 (centres unmarked) [Compound 63, 4-Cyclopentyl-N-(2,5-dichlorophenyl)-2-methyl-5-oxo-1,4,5,6,7,8-hexahydroquinoline-3-carboxamide]	9 µM (≈ 3.77 µg/mL)	No significant activity	1%	No significant activity	99%		6.79 ± 0.05	No significant activity	0±1%	No significant activity	did not reveal significant PAM effects	0.162 µM	
CC1=C(C(=O)Nc2cc(Cl)ccc2Cl)C(c2ccco2)C2=C(CCCC2=O)N1 (centres unmarked) [Compound 16, reference compound]	5 µM (≈ 2.09 µg/mL)	No significant activity	13%	No significant activity	106%		6.89 ± 0.02	No significant activity	2±4%	No significant activity			
CCCC1C(C(=O)Nc2cc(Cl)ccc2Cl)=C(C)NC2=C1C(=O)CCC2 (centres unmarked) [Compound 57, N-(2,5-Dichlorophenyl)-2-methyl-5-oxo-4-propyl-1,4,5,6,7,8-hexahydroquinoline-3-carboxamide]	33 µM (≈ 13 µg/mL)	No significant activity	12%	No significant activity	113%		6.84 ± 0.02	No significant activity	1±4%	No significant activity		0.145 µM	6 fold
